Measurements published in patent US6387647B1 (priority 1993, dated 2002).

Columns and labels:
erg6 mutants = conditions: cited from earlier work
[1] = system: Saccharomyces cerevisiae strain DCX45(pML82)-1B (disrupted cytochrome P450 reductase gene) versus strain STX429-2A (erg6); type: cell-based; conditions: 20 μg per disk; YEPD agar, 30° C., two days; differential of approximately 8 mm or more scored as active
Experimental: Liquid yeast extract, peptone and dextrose (YEPD) media is first prepared by mixing the following ingredients obtained from Difco
and autoclaving at 20 lbs for 15 min. Solidified YEPD media is prepared using the above ingredients, except that
(§1) Overnight cultures of S. cerevisiae strain DCX45-(pML82)-1B from Example 1 above and strain STX429-2A obtained from the Yeast Genetics Stock Center are grown in liquid YEPD media shaken at 30° C. to an OD600 of ˜5 or greater.
(§2) Test media are prepared by combining separately 0.5 parts STX429-2A inoculum to 100 parts of warm YEPD agar media and 2 parts of DCX45(pML82)-1B to 100 parts of warm YEPD agar media. Plates for each culture are poured. Test samples are prepared on disks in duplicate, and each is placed on a STX429-2A plate and a DCX45(pML82)-1B plate, testing 20 μg of test sample per disk. A ¼″ disk containing 10 μg of dinaconazole is used as a positive control on each plate.
(§3) The plates are incubated at 30° C. for two days and then examined to compare activity on the two strains. Actives produce a larger zone on the DCX45(pML82)-1B plate than on the STX429-2A plate. Only compounds producing a differential of approximately 8 mm or more are scored as active.

STX429-2A (erg 6) = conditions: strain STX429-2A (erg 6)
Experimental: as §2
The plates are incubated at 30° C. for two days and then examined to compare activity on the two strains. Actives produce a larger zone on the DCX45(pML82)-1B plate than on the STX429-2A plate.

DCX45 (pML82)-1B = assay: imidazole sensitivity (limit of detection) on cytochrome P450 reductase disrupted strain; type: cell-based, Saccharomyces cerevisiae
Experimental: as §1, §2, §3
The imidazole sensitivity of these compounds in the strains is as follows: […]

[2] = system: DCX45(pML82)-1B (disrupted cytochrome P450 reductase gene); assay: disk sensitivity on YEPD of LEU+ spores / strain DCX45(pML82)-1B (Example 1); conditions: for sensitivity of LEU+ cultures compared with leu− cultures: spores plated on YEPD, disks containing the inhibitors
[3] = system: cytochrome P450 reductase yeast mutants (TSY11-6C, TSY21); conditions: cited from earlier work

| Compound | activity in the cytochrome P450 reductase screen (larger zone on the DCX45(pML82)-1B plate than on the STX429-2A plate) [1] | Limit of Detection (DCX45 (pML82)-1B) [ng] | sensitivity of LEU+ cultures compared with leu− cultures [2] | other results |
| --- | --- | --- | --- | --- |
| C[C@@H]1[C@H](O)[C@@H](C)/C=C/C=C/CC/C=C/C=C/C=C/C=C/C(O[C@H]2O[C@H](C)[C@@H](O)[C@H](N)[C@@H]2O)CC2O[C@](O)(CC(O)C(O)CCC(O)CC(O)CC(O)CC(=O)O[C@H]1C)CC(O)C2C(=O)O (some centres unmarked) [nystatin] |  |  |  | sensitivity or resistance of erg6 mutant strains (erg6 mutants): resistance |
| Clc1ccc(COC(Cn2ccnc2)c2ccc(Cl)cc2Cl)cc1 (centres unmarked) [econazole] | active | 2 | more sensitive | Limit of Detection (STX429-2A (erg 6)): 50 ng |
| mevinolin [lactonized mevinolin] | no response |  |  |  |
| CC(=O)N1CCN(c2ccc(OCC3COC(Cn4ccnc4)(c4ccc(Cl)cc4Cl)O3)cc2)CC1 (centres unmarked) [ketoconazole] | active | 5 | more sensitive | sensitivity of strains TSY11-6C and TSY21 ([3]; disrupted cytochrome P450 reductase genes): sensitive; increase in sensitivity of cytochrome P450 reductase yeast mutants ([3]; mutants lacking the cytochrome P450 reductase gene): 200 fold; sensitivity of strain DCX45(pML82)-1B [2]: supersensitivity |
| C/C=C/C/C=C/CCC(=O)[C@H]1O[C@H]1C(N)=O [cerulenin] |  |  |  | sensitivity of strain DCX45(pML82)-1B [2]: increased sensitivity |
| CN1C(=O)[C@]23CC4=CC=C[C@H](O)[C@H]4N2C(=O)[C@@]1(CO)SS3 [gliotoxin] | positive |  |  |  |
| CC(C)(C)C(O)/C(=C/c1ccc(Cl)cc1Cl)n1cncn1 (centres unmarked) [dinaconazole] | active | 2 | more sensitive | Limit of Detection (STX429-2A (erg 6)): 50 ng |
| Clc1ccc(COC(Cn2ccnc2)c2ccc(Cl)cc2Cl)c(Cl)c1 (centres unmarked) [miconazole] | active |  |  |  |
| C[C@@H]1C[C@@H]([C@H](O)CC2CC(=O)NC(=O)C2)C(=O)[C@@H](C)C1 [cycloheximide] |  |  |  | sensitivity or resistance of erg6 mutant strains (erg6 mutants): hypersensitivity |
